This note sets out measurements from ChEMBL document CHEMBL1141822, “Tenellic acids A-D: new bioactive diphenyl ether derivatives from the aquatic fungus Dendrospora tenella” (1999).

Activity calls are given as the source filed them. The calls are words filed in the database; no cut-off is given here.

The test system of one experiment is Bacillus subtilis. The experiment is described as follows: Antimicrobial activity against Bacillus subtilis ATCC 6051 at 200 ug/disk. The format is functional. The conditions noted are these: read-out: IZ.
For the next experiment, the system named is Candida albicans. The experiment is described as follows: Antimicrobial activity against Candida albicans ATCC 14053 at 200 ug/disk. The format is functional, organism-based.
The next experiment deals with Staphylococcus aureus. The experiment is described as follows: Antimicrobial activity against Staphylococcus aureus ATCC 29213 at 200 ug/disk. It counts as functional. Particulars: read-out: IZ.

Regarding `COc1c(C(CC(C)C)OC)ccc(Oc2c(O)cc(C)cc2C=O)c1C(=O)O` (stereo not given) [TENELLIC ACID A], the zone of inhibition at 200 µg/disc with Bacillus subtilis came to 11 mm. The outcome with Candida albicans was inactive.

Turning to `COc1c(C(O)CC(C)C)ccc(Oc2c(O)cc(C)cc2C=O)c1C(=O)O` (stereo not given) [TENELLIC ACID B], in the experiment with Bacillus subtilis, the zone of inhibition at 200 µg/disc amounted to 9 mm. In addition, the outcome in the experiment on Candida albicans was inactive.

For the molecule `COc1c(C(CC(C)C)OC(C)=O)ccc(Oc2c(O)cc(C)cc2C=O)c1C(=O)O` (stereo not given) [TENELLIC ACID C], the zone of inhibition at 200 µg/disc with Bacillus subtilis was 12 mm; in the experiment on Staphylococcus aureus, 14 mm. Further, in the experiment on Candida albicans, the outcome was inactive.

On to `COc1c(C(CC(C)C)OCC(C)C)ccc(Oc2c(O)cc(C)cc2C=O)c1C(=O)O` (stereo not given) [TENELLIC ACID D], for which the zone of inhibition at 200 µg/disc was determined as 29 mm in the experiment on Bacillus subtilis and 25 mm in the experiment on Staphylococcus aureus. In addition, the outcome with Candida albicans was inactive.
